Data taken from paper PMC6935685 (Pharmacology Research & Perspectives, 2019).
Where “and” joins values, the source holds several entries; their conditions need not be identical. Identical values can stand only once. Like-named read-outs stand apart in the source and are kept apart here.

Legend:
[1] = target: T1, human MT2 (hMT2) (Homo sapiens, UniProt P49286); experiment: 2-[125I]-iodomelatonin competition binding, CHO-K1 membranes
T1 sequence (P49286 1-362): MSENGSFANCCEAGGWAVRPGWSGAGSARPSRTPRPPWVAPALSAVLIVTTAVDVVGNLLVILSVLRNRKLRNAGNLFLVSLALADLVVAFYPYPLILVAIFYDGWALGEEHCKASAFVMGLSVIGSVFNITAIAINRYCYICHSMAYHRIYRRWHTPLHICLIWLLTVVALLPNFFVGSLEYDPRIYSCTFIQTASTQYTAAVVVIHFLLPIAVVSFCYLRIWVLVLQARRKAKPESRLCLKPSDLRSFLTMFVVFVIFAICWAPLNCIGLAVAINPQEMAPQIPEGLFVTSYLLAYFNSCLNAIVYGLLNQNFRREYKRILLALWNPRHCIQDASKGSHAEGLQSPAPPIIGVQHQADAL

[2] = target: T2, MT2 (Homo sapiens, UniProt P49286); experiment: Overall functionality from the signaling pathway panel
T2 sequence (P49286 1-362): T1 sequence (P49286 1-362)

[3] = target: T2, MT2; experiment: HTRF cAMP assay, agonist mode cAMP; format: cell-based; conditions: for Emax, cAMP (+): hMT2, inhibition of cAMP production, normalization vs melatonin
[4] = target: T3, human MT1 (hMT1) (Homo sapiens, UniProt P48039); experiment: 2-[125I]-iodomelatonin competition binding, CHO-K1 membranes
[5] = target: T4, MT1 (Homo sapiens, UniProt P48039); experiment: Overall functionality from the signaling pathway panel
[6] = target: T3, human MT1 (hMT1); experiment: [35S]-GTPγS binding, agonist mode GTPγS; format: biochemical
[7] = target: T2, MT2; experiment: HTRF cAMP assay, antagonist mode cAMP; format: cell-based
[8] = target: T2, MT2; experiment: β-arrestin recruitment, PathHunter CHO-K1 cells; format: cell-based
[9] = target: T2, MT2; experiment: Receptor internalization, U2O-S cells; format: cell-based; conditions: for receptor internalization: MT2
[10] = target: T1, human MT2 (hMT2); experiment: [35S]-GTPγS binding, antagonist mode GTPγS; format: biochemical
[11] = target: T4, MT1; experiment: β-arrestin recruitment, PathHunter CHO-K1 cells; format: cell-based
[12] = target: T4, MT1; experiment: Cellular dielectric spectroscopy; format: cell-based; conditions: MT1
[13] = target: T2, MT2; experiment: Cellular dielectric spectroscopy; format: cell-based; conditions: MT2
[14] = target: T4, MT1; experiment: HTRF cAMP assay, agonist mode cAMP; format: cell-based; conditions: inhibition of cAMP production, normalization vs melatonin
[15] = target: T1, human MT2 (hMT2); experiment: [35S]-GTPγS binding, agonist mode GTPγS; format: biochemical
[16] = target: T4, MT1; experiment: Receptor internalization, DLD-1 cells; format: cell-based
[17] = target: T3, human MT1 (hMT1); experiment: [35S]-GTPγS binding, antagonist mode GTPγS; format: biochemical
[18] = MT1 Affinity (pKi), against 2-[125I]iodomelatonin

T4 sequence (P48039 whole entry): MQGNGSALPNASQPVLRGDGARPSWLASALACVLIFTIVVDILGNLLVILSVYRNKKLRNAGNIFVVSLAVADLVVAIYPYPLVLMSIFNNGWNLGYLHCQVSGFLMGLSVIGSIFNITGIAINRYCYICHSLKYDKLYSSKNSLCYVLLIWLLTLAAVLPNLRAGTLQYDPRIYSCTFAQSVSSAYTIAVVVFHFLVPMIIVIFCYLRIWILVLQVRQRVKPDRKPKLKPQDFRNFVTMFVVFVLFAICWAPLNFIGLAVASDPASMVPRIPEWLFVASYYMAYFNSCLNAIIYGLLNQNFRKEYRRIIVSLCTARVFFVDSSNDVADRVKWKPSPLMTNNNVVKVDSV
T3 sequence (P48039 whole entry): as above

Compound | Ki [1] [nM] | MT2 Our data (functionality) [2] | Ki [4, 18] [nM] | MT1 Our data (functionality) [5] | receptor internalization [9] | other results
CCC(=O)NC1Cc2ccccc2C(c2ccccc2)C1 (centres unmarked) [4P‐PDOT, 4‐phenyl‐2‐propionamidotetraline, reference compound] | 1.07 | partial ago | 141 | partial ago |  | Emax, cAMP (+) [3]: ~90% and 100%; EC50 ([3]; pEC50, cAMP production inhibition, MT2, text): 2 nM; Ki ([4]; affinity for MT1, order of magnitude given in text): ~100 nM; induction of GTPγS binding [6]: does not induce GTPγS binding; antagonism in cAMP assay ([7]; MT2): completely inactive
COc1ccc2cccc(CCNC(C)=O)c2c1 [Agomelatine, N‐[2‐(7‐methoxynaphthalen‐1‐yl)ethyl]acetamide, reference compound] |  | ago |  | ago |  | MT2 Our data (functionality) ([2]; listed as S20098): agonists; MT1 Our data (functionality) ([5]; listed as S20098): agonists
CC(=O)NCCc1c(Cc2ccccc2)[nH]c2ccccc12 [Luzindole, N‐acetyl‐2‐benzyltryptamine, reference compound] |  | partial ago | 257 | antago | induces the internalization | β-arrestin recruitment [8]: does not recruit; Emax, cAMP (+) [3]: 70%; EC50 [9]: ~10 nM; Emax ([7]; read-out: Emax, cAMP (−)): 55%
COc1ccc2[nH]cc(CCNC(C)=O)c2c1 [Melatonin, N‐acetyl‐5‐methoxytryptamine, reference compound] |  |  |  | ago |  | 
O=C(NCCc1cccc2ccccc12)C1CCC1 [S20928, (N‐[2‐(1‐naphthyl)ethyl]cyclobutanecarboxamide)] |  |  | 170 |  | does not induce internalization | inhibition of melatonin-induced GTPγS binding [10]: slightly inhibits; β-arrestin recruitment [11]: capacity to recruit; cell shape shift, CellKey [12]: failed to elicit any significant shift in shape; concentration of maximal effect (CellKey) [13]: ~100 nmol/L; Emax, cAMP (+) [3]: 50%; Emax, cAMP (+) [14]: less than 25%; induction of GTPγS binding [15]: induces the binding of GTPγS; receptor internalization [16]: does not induce internalization; inhibition of melatonin-induced GTPγS binding [17]: fully inhibits
COc1ccc2ncn(CCNC(C)=O)c2c1 [S21278, N‐[2‐(6‐methoxy‐benzimidazol‐1‐yl)ethyl]acetamide] | 603 | agonists and ago | 603 | agonists | not enough to elicit internalization | β-arrestin recruitment [11]: complete recruitment
CCc1ccc2scc(CCNC(C)=O)c2c1 [S22153, N‐[2‐(5‐ethylbenzothiophen‐3‐yl)ethyl]acetamide] | 7.94 | ago | 9.77 | partial ago |  | 
COc1cc2c(CCNC(C)=O)c(I)[nH]c2cc1[N+](=O)[O-] [S27128, N‐[2‐(2‐iodo‐5‐methoxy‐6‐nitro‐1H‐indol‐3‐yl)ethyl]acetamide] |  | agonists and ago | 1.2 | agonists and ago | exhibited subsequent internalization | receptor internalization [16]: exhibited subsequent internalization
COCC(CNC(C)=O)c1cccc2ccc(OC)cc12 (centres unmarked) [S73893, N‐[3‐methoxy‐2‐(7methoxy‐ 1‐naphthyl)propyl]acetamide] | 7.76 |  | 4.37 | partial ago |  | 
COc1ccc2cccc(C(CO)CNC(=O)CF)c2c1 (centres unmarked) [S75436, 2‐fluoro‐N‐[3‐hydroxy‐2‐(7‐methoxy‐1‐naphthyl)propyl]acetamide] | 1.12 | agonists and ago |  | agonists and ago |  | Ki [4]: 9.12 nM
COc1ccc2c(c1)C(CNC(N)=O)Cc1ccccc1C2 (centres unmarked) [S77840, 1‐[(8‐methoxy‐10,11‐dihydro‐5H‐dibenzo[a,d]‐[7]annulen‐10‐yl)methyl]urea] |  |  |  |  | lack of capacity to provoke internalization | cell shape shift, CellKey [13]: failed to elicit any significant shift in shape; receptor internalization [16]: lack of capacity to provoke internalization
COc1ccc2[nH]cc(CCNC(=O)CI)c2c1 [SD6, N‐[2‐(5‐methoxy‐1H‐indol‐3‐yl)ethyl] iodoacetamide] |  | agonists and ago |  | agonists and ago |  | 
methoxyverapamil [D600, reference compound] |  |  |  | antago | did not induce | β-arrestin recruitment [11]: did not induce; β-arrestin recruitment [8]: did not induce; MT2 Affinity (pKi) ([1]; against 2-[125I]iodomelatonin): <6; MT1 Affinity (pKi) ([4]; against 2-[125I]iodomelatonin): 7 and 7.04; receptor internalization [16]: did not induce

Second part, led by results:

Ki [1] [nM] | MT2 Our data (functionality) [2] | Ki [4, 18] [nM] | MT1 Our data (functionality) [5] | receptor internalization [9] | Compound | other results
2.45 | agonists and ago | 1.45 | agonists and ago |  | COc1cc2c(CCNC(C)=O)c[nH]c2cc1I [SD1881, N‐[2‐(6‐iodo‐5‐methoxy‐1H‐indol‐3‐yl)ethyl]acetamide] | 
10.2 | ago | 17.4 | partial ago |  | COc1ccc2[nH]cc(CCNC(C)=O)c2c1I [SD1882, N‐[2‐(4‐iodo‐5‐methoxy‐1H‐indol‐3‐yl)ethyl] acetamide] | concentration of maximal effect (CellKey) [12]: ~100 nmol/L
47.9 | ago | 45.7 | partial ago |  | COc1cc(I)c2[nH]cc(CCNC(C)=O)c2c1 [SD1918, N‐[2‐(7‐iodo‐5‐methoxy‐1H‐indol‐3‐yl)ethyl]acetamide] | 
